Read-outs that look alike come from different tables or passages of the source.
Experiments:
[1] = molecular target: T1, BRD2(2) (h) bromodomain (Homo sapiens, UniProt P25440); experiment: Epigenetic binding assay, Bromodomain; conditions: read-out: % Inhibition of Control Specific Binding
T1 construct: Bromodomain

[2] = molecular target: T2, L3MBTL3 (h) MBT domain (Homo sapiens, UniProt Q96JM7); experiment: Epigenetic binding assay, MBT domain; conditions: read-out: % Inhibition of Control Specific Binding
T2 construct: Tudor, MBT and chromo domains gauge the degree of lysine methylation; Eurofins CEREP (France), contract laboratory
T2 sequence (Q96JM7 225-555 limits assumed): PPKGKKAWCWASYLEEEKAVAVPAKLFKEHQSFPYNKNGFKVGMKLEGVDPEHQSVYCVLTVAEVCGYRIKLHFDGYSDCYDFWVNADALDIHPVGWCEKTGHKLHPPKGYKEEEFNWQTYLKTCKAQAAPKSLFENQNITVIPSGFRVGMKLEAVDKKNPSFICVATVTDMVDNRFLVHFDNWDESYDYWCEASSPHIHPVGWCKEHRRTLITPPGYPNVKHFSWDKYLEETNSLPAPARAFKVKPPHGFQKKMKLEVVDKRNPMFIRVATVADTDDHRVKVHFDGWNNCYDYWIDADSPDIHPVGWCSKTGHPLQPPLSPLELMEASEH

[3] = molecular target: T3, Sirtuin 7 (h) (Homo sapiens, UniProt Q9NRC8); experiment: Epigenetic enzyme assay, Sirtuins; type: biochemical; conditions: 10 μM; read-out: % Inhibition of Control Values
T3 sequence (Q9NRC8 1-400): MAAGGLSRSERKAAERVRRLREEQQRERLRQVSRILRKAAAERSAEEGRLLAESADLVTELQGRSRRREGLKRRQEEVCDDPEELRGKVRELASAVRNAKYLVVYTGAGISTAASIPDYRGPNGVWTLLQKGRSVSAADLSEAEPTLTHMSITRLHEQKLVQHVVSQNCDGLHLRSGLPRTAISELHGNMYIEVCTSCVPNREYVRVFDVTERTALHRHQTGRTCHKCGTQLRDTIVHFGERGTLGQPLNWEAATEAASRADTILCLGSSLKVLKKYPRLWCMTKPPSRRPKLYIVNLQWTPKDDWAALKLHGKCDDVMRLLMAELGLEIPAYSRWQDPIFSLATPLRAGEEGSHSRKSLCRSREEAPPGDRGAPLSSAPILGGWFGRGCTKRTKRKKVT

[4] = molecular target: T4, Catechol O-methyltransferase (h) (Homo sapiens, UniProt P21964); experiment: Epigenetic enzyme assay, Small molecule methyltransferases; type: biochemical; conditions: read-out: % Inhibition of Control Values
T4 sequence (P21964 1-271): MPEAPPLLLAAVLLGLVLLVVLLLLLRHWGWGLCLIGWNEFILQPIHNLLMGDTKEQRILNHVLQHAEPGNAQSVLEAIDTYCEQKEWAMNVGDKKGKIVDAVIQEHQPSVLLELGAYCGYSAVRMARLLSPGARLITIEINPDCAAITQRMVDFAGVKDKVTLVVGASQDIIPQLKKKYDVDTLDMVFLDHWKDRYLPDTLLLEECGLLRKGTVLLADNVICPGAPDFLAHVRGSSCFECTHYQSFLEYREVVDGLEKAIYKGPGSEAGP

[5] = molecular target: T5, Thiopurine S-methyltransferase (h) (Homo sapiens, UniProt P51580); experiment: as above; type: biochemical; conditions: read-out: % Inhibition of Control Values
T5 sequence (P51580 1-245): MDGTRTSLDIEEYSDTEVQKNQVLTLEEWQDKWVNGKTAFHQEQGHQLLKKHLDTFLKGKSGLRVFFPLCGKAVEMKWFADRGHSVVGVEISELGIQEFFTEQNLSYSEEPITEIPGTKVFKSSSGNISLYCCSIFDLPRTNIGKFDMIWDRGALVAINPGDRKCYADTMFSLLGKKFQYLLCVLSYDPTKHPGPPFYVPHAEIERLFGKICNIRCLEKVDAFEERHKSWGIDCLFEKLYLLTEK

[6] = molecular target: T6, Histamine H3 (Homo sapiens, UniProt Q9Y5N1); experiment: Histamine H3 radio ligand binding
T6 construct: expressed in transfected cells; host or cells: Chem-1 cells
Description: (§1) The in vitro pharmacological studies were conducted by Eurofins PanLab (Taiwan) using the parameters shown in Table 13 with respect to appropriate literature references.

[7] = molecular target: T7, HMG-CoA Reductase (Homo sapiens, UniProt P04035); experiment: HMG-CoA Reductase; type: biochemical; conditions: assay year 2015, read-out: % Control Response
T7 construct: host or cells: E. coli
T7 sequence (P04035 426-888 limits assumed): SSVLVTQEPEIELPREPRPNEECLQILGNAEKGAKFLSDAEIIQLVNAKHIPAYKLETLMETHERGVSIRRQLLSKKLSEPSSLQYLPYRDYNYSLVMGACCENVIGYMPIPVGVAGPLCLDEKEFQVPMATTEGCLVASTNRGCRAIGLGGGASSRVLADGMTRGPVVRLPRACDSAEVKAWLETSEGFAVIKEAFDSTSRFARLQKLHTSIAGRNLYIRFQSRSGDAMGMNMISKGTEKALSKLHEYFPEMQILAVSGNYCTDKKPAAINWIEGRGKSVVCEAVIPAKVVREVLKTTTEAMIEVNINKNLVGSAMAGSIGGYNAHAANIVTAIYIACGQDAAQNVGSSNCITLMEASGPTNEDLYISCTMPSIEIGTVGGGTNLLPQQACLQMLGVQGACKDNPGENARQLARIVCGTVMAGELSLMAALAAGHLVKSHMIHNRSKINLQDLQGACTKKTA
Description: as §1

[8] = molecular target: T8, Protein Tyrosine Phosphatase, PTPN1 (PTP1B) (Homo sapiens, UniProt P18031); experiment: Protein Tyrosine Phosphatase, PTPN1 (PTP1B); type: biochemical; conditions: assay year 2015, read-out: % Control Response
T8 construct: host or cells: E. coli
T8 sequence (P18031 1-435): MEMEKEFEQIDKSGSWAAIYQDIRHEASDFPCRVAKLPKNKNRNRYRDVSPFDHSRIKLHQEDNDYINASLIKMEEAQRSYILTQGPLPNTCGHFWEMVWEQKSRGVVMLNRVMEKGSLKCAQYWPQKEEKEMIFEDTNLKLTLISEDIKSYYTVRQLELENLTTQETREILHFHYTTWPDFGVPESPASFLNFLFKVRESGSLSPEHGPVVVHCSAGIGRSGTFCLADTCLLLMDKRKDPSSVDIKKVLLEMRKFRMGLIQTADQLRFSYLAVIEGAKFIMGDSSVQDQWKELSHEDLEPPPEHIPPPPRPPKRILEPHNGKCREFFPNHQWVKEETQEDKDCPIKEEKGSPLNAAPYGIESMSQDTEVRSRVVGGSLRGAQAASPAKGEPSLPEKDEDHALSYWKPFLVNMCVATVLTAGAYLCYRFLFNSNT
Description: as §1

[9] = system: HCT-8; experiment: OncoPanel cell proliferation assay (10-day); type: cell-based, human; conditions: for EC50 / GI50 / IC50: Homo sapiens, HCT-8, Colon; for EC50: read-out: Cell Count EC50; for GI50: read-out: Cell Count GI50; for IC50: read-out: Cell Count IC50
[10] = assay year 2014, read-out: % Control Response
[11] = assay year 2015, read-out: % Control Response

T1 sequence (P25440 344-453 limits assumed): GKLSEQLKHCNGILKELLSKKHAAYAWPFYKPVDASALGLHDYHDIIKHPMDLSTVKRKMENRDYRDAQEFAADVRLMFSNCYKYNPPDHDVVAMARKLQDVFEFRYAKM
T6 sequence (Q9Y5N1 whole entry): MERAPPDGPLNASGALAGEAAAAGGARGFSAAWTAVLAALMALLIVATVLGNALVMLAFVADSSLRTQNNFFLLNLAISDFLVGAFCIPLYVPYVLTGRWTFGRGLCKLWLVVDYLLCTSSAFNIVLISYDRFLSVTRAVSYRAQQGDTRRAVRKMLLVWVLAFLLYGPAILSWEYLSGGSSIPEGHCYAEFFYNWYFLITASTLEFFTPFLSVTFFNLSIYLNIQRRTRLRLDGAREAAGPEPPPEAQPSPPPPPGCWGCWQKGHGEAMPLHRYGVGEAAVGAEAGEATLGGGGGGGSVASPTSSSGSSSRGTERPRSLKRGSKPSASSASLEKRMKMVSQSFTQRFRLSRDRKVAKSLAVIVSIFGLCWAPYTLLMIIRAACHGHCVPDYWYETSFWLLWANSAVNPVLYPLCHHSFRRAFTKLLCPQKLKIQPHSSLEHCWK

| SMILES | inhibition at 10 µM [1] | inhibition at 10 µM [2] | inhibition at 10 µM [3] | inhibition at 10 µM [4] | inhibition at 10 µM [5] | remaining activity at 10 µM [6, 10] | remaining activity at 10 µM [6, 11] | remaining activity at 10 µM [7] | remaining activity at 10 µM [8] | EC50 [9] | GI50 [9] | IC50 [9] | other results |
| --- | --- | --- | --- | --- | --- | --- | --- | --- | --- | --- | --- | --- | --- |
| CC(C)=CCC[C@H](CO)[C@@H]1CC[C@@H](C)c2c1cc(C)c(O)c2O [Compound 1, 7,8,18-trihydroxyserrulat-14-ene] | 58% | 22% | 7% | 6% | 40% | -10% | 12% | 29% | 20% | 1.23 µM | 1.23 µM | 1.23 µM | Relative cell count (%) Mean ([9]; HCT-8, 3.00E+00 microM): 1.9%; Relative cell count (%) Mean ([9]; HCT-8, 3.00E+01 microM): 0.0%; Relative cell count (%) Mean ([9]; HCT-8, 3.01E−01 microM): 94.9%; Relative cell count (%) Mean ([9]; HCT-8, 3.01E−02 microM): 91.8%; Relative cell count (%) Mean ([9]; HCT-8, 3.02E−03 microM): 104.1%; Relative cell count (%) Mean ([9]; HCT-8, 9.49E+00 microM): 0.0%; Relative cell count (%) Mean ([9]; HCT-8, 9.51E−01 microM): 72.6%; Relative cell count (%) Mean ([9]; HCT-8, 9.52E−02 microM): 100.8%; Relative cell count (%) Mean ([9]; HCT-8, 9.53E−03 microM): 91.0%; Relative cell count (%) Mean ([9]; HCT-8, 9.55E−04 microM): 102.6% |
| CC(C)=CCC[C@@H]1C(O)Oc2c(C)cc(O)c3c2[C@H]1CC[C@H]3C (stereo partly drawn) [Compound 2, 5,18-epoxyserrulat-14-en-8,18-diol] | 22% | 29% | -2% | 1% | 28% | -5% | 24% | 27% | 3% | 6.27 µM | 6.24 µM | 6.27 µM |  |
| CC(C)=CCC[C@@H]1COc2c(C)cc(O)c3c2[C@H]1CC[C@H]3C [Compound 3, 5,18-epoxy-8-hydroxyserrulat-14-ene] | 18% | 33% | -8% | 0% | 19% |  | 1% | 24% | -3% |  |  |  |  |
| CC(C)=CCC[C@H](C)[C@@H]1CC[C@@H](C)c2c1cc(C)c(O)c2O [Compound 4, 7,8-dihydroxyserrulat-14-ene] |  |  |  |  |  |  |  |  |  | 12.9 µM | 12.9 µM | 12.9 µM |  |

— patent US11331299B2, “Medicinal use of serrulatane diterpenes” (The University of Sydney, priority 2016, dated 2022)
